The source of these data is patent publication US20150344535A1, “NEUROTROPHIN-TYROSINE KINASE RECEPTOR SIGNALING” (THE UNIVERSITY OF QUEENSLAND, priority 2012, published 2015).

“Also recorded” adds a separate entry of the source.

One assay addresses T1, TrkB (Mus musculus, UniProt P15209).
T1 construct: endogenous in cells; host or cells: NSC-34
The assay can be described thus: Biotinylated peptide pull down of TrkB from NSC-34 cells. It is filed as binding. Conditions: NSC-34 cell lysate, FIG. 4D. The method, then:
For peptide pull down assays, the biotinylated c29 or LC1 control peptides were incubated with protein A-sepharose beads or Dynabeads MyOne Streptavidin T1 (Invitrogen) overnight at 4° C. Cell lysates were then added to the peptide-protein A-sepharose complex or Dynabeads MyOne Streptavidin T1 and incubated for 3 hours at 4° C. Peptide-receptor complexes were washed extensively with RIPA lysis buffer and eluted by boiling in Laemmli sample buffer. For p75^NTR construct immunoprecipitations, HEK293 cells were treated with NGF at 50 ng/ml for 10 minutes 48 hours after transfection with 1 μg DNA per well. Cells were immediately harvested in ice-cold phosphate buffered saline (PBS) and washed twice, then lysed in 1 ml of lysis buffer. Cell lysates were pre-cleared in 75 μl (1:2) protein-G sepharose: PBS by rotation end-over-end for 2 hours at 4′C. Lysates were then incubated with 3-5 μg antibody, either mouse-anti-YFP/GFP (Roche) or rabbit-anti-human p75^NTR intracellular domain antibody (Promega), and rotated end-over-end for 2 hours at 4° C.
Immunoprecipitation was performed by the addition of 75 μl (1:2) protein-G sepharose: PBS and incubation end-over-end for 16 hours at 4° C. The immunoprecipitate was washed 4 times with 1 ml of PBS then eluted in 60 μl 2×LDS sample buffer. […]

For assay [1], the system named is C7-8 spinal cord motor neurons. As to the kind of experiment: Motor neuron axotomy (median and ulnar nerve) in neonatal rat. Conditions: P4 rat pups, peptide in gel foam at axonal stump, 5-day recovery, relative to contralateral side. In kind it is in vivo. The method, then: Median and ulnar nerve axotomy was performed on 4 day-old Wistar rat pups as previously described (Cheema et al., 1996). Peptides (c29 and vehicle only; 100 nM) were applied via a 1 mm^3 cube of pluronic gel foam that was sutured to the proximal axonal stump (Cheema et al., 1996). After 5 days the animals were perfused with a 4% solution of paraformaldehyde in phosphate buffer. Cervical spinal cords were removed, after which serial sections were cut at 40 μm, mounted onto gelatin-coated slides and stained in 0.1% cresyl violet. Details of the counting procedure have been described previously (Cheema et al., 1994).
We next investigated whether c29 could prevent motor neuron death following growth factor withdrawal in vivo using a neonatal rat axotomy model. Following unilateral median and ulnar nerve transections of postnatal day 4 (P4) rat pups, c29 or the vehicle protein transduction domain (PTD4) was applied to the proximal site of transaction in a small cube of gel foam. After a 5-day recovery, the number of surviving C7-8 spinal cord motor neurons relative to the contralateral side was determined by histological counts. Such an axotomy causes 50% of the ipsilateral motor neurons to die (Cheema et al., 1996), with control peptide treatment having no effect on this degree of cell death (FIG. 7E, F). […]

For a further assay, the system named is PC12 cells. As to the kind of experiment: NGF-FITC binding by flow cytometry, PC12 cells. Conditions: for % of cell population with FITC above background / Maximal fluorescence per cell of the population / Mean fluorescence per FITC-positive cell / Median population fluorescence: NGF-FITC. The method, then:
The NGF was conjugated to FITC by standard methods and detailed flow cytometry acquisition and analysis. For NGF-FITC conjugation 400 μg βNGF in 200 μl pH 8.5 NaHCO3 buffer was mixed with 5-10 μl of 10 mg/ml FITC in 100 μl DMSO for 10 hours at 4° C. on an orbital shaker set to 100 rpm. The excess FITC was removed by dialysis against 3 changes of 5 L of 10 mM Tris, 150 mM NaCl, 0.2% acetic acid, pH 8.2 for 24 hours at 4° C. Conjugate F/P characterization was determined by measuring absorbance at 280 nm and 495 nm according to manufacturer's instructions. Biological activity of the NGF-FITC conjugate was tested by performing PC12 cell neurite outgrowth assays unlabelled NGF, and comparing the levels of neuritogenesis. NGF-FITC conjugates were used within 4 weeks of synthesis.
For the flow cytometry NGF binding assays, fluorescence cell parameters of at least 20,000 events for PC12 cells and 100,000 events for HEK293 cells were acquired by flow cytometry list mode and measurements were performed on a single cell basis (with compensation for double event counting). Dead cells and debris were gated out of the analysis on the basis of forward scatter fluorescence, and mean, median and maximal fluorescence values of the gated cell populations were analysed using FACS Diva Software (Becton-Dickinson Biosciences) and FACS Express Software (Becton-Dickinson Biosciences).
Background fluorescence of HEK293 cells was non-transfected cells (±c29 or scrambled peptide treatment) treated with 26 nM NGF-FITC. For PC12 cells, the control population was cells that had not been treated with NGF-FITC. Analysis of real-time NGF-FITC receptor binding experiments was performed on 550,000-600,000 cells at 4° C. in serum free NB medium and binding kinetics were calculated from raw data files compressed to 50,000 binding events using FlowJo and MatLab Software. Data was plotted with the use of GraphPad Prism.
Only NGF-FITC preparations that promoted equivalent neurite outgrowth of PC12 cells to that of unlabelled NGF were used in binding experiments. To investigate NGF binding, PC12 or transfected HEK293 cells were serum starved for 4 hours, harvested, washed with Dulbecco's Modified Eagle Medium (DMEM), and counted. When used, c29 or scrambled peptide were added to cultures for the third hour of the serum starvation procedure. 1×10^7 cells/ml suspended in 500 μl of serum-free DMEM were incubated with 26 nM NGF-FITC on ice for 60 minutes before analysis. For binding competition assays, following 1 hour in NGF-FITC, cells were washed with ice-cold PBS containing 0.1% normal bovine serum and incubated on ice with unlabeled NGF at concentrations ranging from 100 pM to 10 μM for 30 minutes, then washed twice in PBS before being analysed on a BD Flow Cytometer FACS Scan (Becton-Dickinson).
First, to determine the concentration of c29 required to modulate NGF binding, c29 levels were titrated with a fixed concentration of NGF-FITC.
Background: Flow cytometry measures light scatter and fluorescence of single cells or particles in a stream.

For the next assay, the system named is p75^FL. The assay can be described thus: Production of endogenous p75^CTF or p75^ICD fragments in p75^FL-transfected HEK293 cells. Conditions: vs untreated cells, data not shown. It is filed as cell-based.
Assay [2] is described as follows: Fear extinction / return of fear in mice. In kind it is in vivo, mouse. As to conditions: female mice, infusion into infralimbic prefrontal cortex, VEH RET vs C29 RET, FIG. 12. The text has this:
Baker-Andresen et al. Learn Mem. 2013 Apr. 15; 20(5):237-40.
Following fear conditioning (Example 17), exposure to the tone without the shock is termed extinction (removal of the memory).
Researchers can time the duration of this response. Repeated exposure to the tone without the shock is termed extinction (removal of the memory).

T1 sequence (P15209 32-476 isoform P15209-2 limits assumed): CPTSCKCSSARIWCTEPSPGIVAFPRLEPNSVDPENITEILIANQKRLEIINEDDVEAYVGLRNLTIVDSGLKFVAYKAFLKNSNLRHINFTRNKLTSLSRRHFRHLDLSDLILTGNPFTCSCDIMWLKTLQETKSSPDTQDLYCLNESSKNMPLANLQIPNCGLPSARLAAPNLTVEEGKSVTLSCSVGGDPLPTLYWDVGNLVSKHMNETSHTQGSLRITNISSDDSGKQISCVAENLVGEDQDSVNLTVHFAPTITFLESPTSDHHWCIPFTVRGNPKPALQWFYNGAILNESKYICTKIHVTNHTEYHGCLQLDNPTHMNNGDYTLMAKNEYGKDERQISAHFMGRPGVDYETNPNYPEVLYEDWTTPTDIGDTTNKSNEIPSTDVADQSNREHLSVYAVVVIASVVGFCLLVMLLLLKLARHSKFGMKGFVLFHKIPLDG

On to “KRWNSCKQNKQGANSRPVNQTPPPEGEKL (c29- Fragment of p75ICD) [29 amino acid peptide of the p75NTR juxtamembrane Chopper domain; delivered to cells linked to PTD4 or disulfide-linked carrier]”, for which the “pull down of endogenously expressed TrkB” value in the assay with TrkB is “able to pull down endogenously expressed TrkB”. Besides, in assay [1], the “axotomised neurons that died” value is given as 12%. Also, in the assay on PC12 cells (c.f. PC12), the “% of cell population with FITC above background” value was found to be 115.7 ± 19.7%, the “Maximal fluorescence per cell of the population” value is given as 123.6 ± 17.3%, the “Mean fluorescence per FITC-positive cell” value was determined as 126.3 ± 4.8% and the Median population fluorescence was found to be 127.4 ± 8.1%. In addition, in the assay with PC12 cells (c.f. PC12 + SC), the “% of cell population with FITC above background” value was determined as 115.3 ± 13.4%, the “Maximal fluorescence per cell of the population” value is 123.1 ± 5.2%, the “Mean fluorescence per FITC-positive cell” value was found to be 121.4 ± 5.5% and the Median population fluorescence is given as 122.5 ± 8.4%. Also, in the assay with PC12 cells (PC12 cells, compared to control or scrambled peptide-treated cells), the “all measured fluorescence parameters of the FITC-positive population” value is “increased”. In addition, in the assay with PC12 cells (fixed concentration of NGF-FITC, FIG. 10A), the “c29 concentration at which an increase in median fluorescence was observed” value was 1 pM. For the same sequence, the “rate of production of endogenous p75^CTF or p75^ICD fragments” value with p75^FL is reported as “did not differ significantly”. Also, the return of fear result in assay [2] was “prevents the return of fear; also recorded: blocked the return of fear”.
